Patent publication US4011390A, “Semi-synthetic aminocyclitol aminoglycoside antibiotics and methods for the preparation thereof” (Schering-Plough Corporation, priority 1974, dated 1977)

How the values were obtained:
Experiment in all cases: Activity against resistant strains
Format in all cases: cell-based
Pseudomonas aeruginosa = conditions: gentamicin and sisomicin resistant strains
Source text: (§1) In many instances, bacterial resistance is related to the organism's ability to inactivate the antibacterial agent via enzymatic (biochemical) means. Some species inactivate aminoglycosides antibiotics by acetylating the antibacterial agent, others by phosphorylation and still others by adenylylating. Some strains have several different inactivating capabilities. Further, the inactivation reactions occur at a specific site or sites on the antibacterial agent. We have shown by the compounds of this invention that alteration of sites on the antibiotic molecule not directly involved in inactivation processes can nevertheless frustrate these inactivation processes. […] The tables illustrate that the mutamicins include compounds which are active against strains having different mechanisms of inactivation of gentamicin, sisomicin, kanamycin, neomycin and torbramycin. For example, some mutamicins are effective against strains of E. coli which contain adenylylating R factors such as E. coli W677/R55 and LA290/R55. These E. coli strains are resistant to gentamicin, sisomicin and torbramycin. Some are also effective against gentamicin, tobramycin and kanamycin resistant adenylylating strains of Klebsiella pneumoniae and also kanamycin, neomycin phosphorylating strains of E. coli and Klebsiella pneumoniae. Further, some mutamicins are effective against gentamicin and sisomicin resistant strains of Pseudomonas aeruginosa and gentamicin, sisomicin, tobramycin resistant Providence which is sensitive to kanamycin. Thus, the mutamicins afford a means for combatting strains of bacteria which have already developed a variety of mechanisms for resisting the action of many of the antibiotics known in the art or currently in commercial use.

E. coli = E. coli W677/R55 and LA290/R55
Source text: as §1

Providence = conditions: gentamicin, sisomicin, tobramycin resistant Providence
Source text: as §1

CN[C@@H]1[C@@H](O)[C@@H](O[C@@H]2[C@@H](O)[C@H](O[C@H]3OC(CN)=CC[C@H]3N)[C@@H](N)C[C@H]2N)OC[C@]1(C)O [Sisomicin, O-2,6-Diamino-2,3,4,6-tetradeoxy-α-D-glycero-hex-4-eno-pryanosyl(1→4)-O-[3-deoxy-4-C-methyl-3-(methylamino)-B-L-arabinopyranosyl(1→6)] -2-deoxy-D-streptamine, reference compound]
resistant: activity against resistant strains (Pseudomonas aeruginosa) | activity against strains containing adenylylating R factors (E. coli) | activity against resistant Providence (Providence)
